One compound from PMC11256326, “Discovery of Heparin Mimetic, Potent, and Selective Inhibitors of Human Clotting Factor XIIIa” (ACS Omega, 2024) can be followed below.

The assay concerns the target T1, rTG-2 (recombinant human tissue transglutaminase-2) (Homo sapiens, UniProt P21980).
T1 construct: purchased Tocris Bioscience
T1 sequence (P21980 1-687): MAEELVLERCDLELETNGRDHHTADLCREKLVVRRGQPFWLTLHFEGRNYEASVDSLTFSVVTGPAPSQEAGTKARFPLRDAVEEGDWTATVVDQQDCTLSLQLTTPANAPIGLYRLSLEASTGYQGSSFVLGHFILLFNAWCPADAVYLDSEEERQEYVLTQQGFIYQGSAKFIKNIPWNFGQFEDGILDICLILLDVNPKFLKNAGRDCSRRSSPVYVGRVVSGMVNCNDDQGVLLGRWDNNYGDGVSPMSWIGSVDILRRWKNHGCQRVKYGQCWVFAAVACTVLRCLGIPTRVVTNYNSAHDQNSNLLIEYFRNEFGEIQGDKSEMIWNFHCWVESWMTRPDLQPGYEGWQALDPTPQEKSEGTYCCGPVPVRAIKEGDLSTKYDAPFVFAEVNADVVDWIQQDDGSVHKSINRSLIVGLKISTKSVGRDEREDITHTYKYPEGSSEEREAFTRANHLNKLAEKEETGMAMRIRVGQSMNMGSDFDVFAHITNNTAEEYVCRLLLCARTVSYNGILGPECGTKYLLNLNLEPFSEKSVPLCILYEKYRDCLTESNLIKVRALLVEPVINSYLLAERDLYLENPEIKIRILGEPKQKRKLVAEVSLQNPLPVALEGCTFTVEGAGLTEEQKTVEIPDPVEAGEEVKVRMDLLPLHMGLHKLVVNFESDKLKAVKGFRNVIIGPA
The assay can be described thus: bisubstrate, fluorescence-based trans-glutamination assay with recombinant TG-2. The format is biochemical. An excerpt: FXIIIa and TG-2 belong to the same transglutaminase superfamily, and they share similar protein folds with a sequence similarity of 34%. Although we believe that sulfonated heparin mimetics are less likely to distribute to peripheral tissues, we evaluated inhibitor 16′s potential to inhibit TG-2 (we used recombinant TG-2). […] Likewise, we studied the inhibition of papain, a related cysteine protease, by molecule 16.
Human plasma proteins such as FXIIIa, thrombin, factor Xa, and factor XIa were procured from Haematologic Technologies. Recombinant human TG-2 was sourced from Tocris Bioscience. Their activities were validated according to the supplier’s instructions. Chromogenic substrates for thrombin and factor Xa were acquired from Biomedica Diagnostics, while the factor XIa chromogenic substrate (S-2366) was obtained from Diapharma. Dithiothreitol, N,N-dimethylcasein, and dansylcadaverine were purchased from Sigma Aldrich. Stock solutions of thrombin and factor XIa were prepared in 50 mM Tris-HCl buffer, pH 7.4, containing 150 mM sodium chloride, 0.1% PEG8000, and 0.02% Tween80. The stock solution of factor Xa was prepared in 20 mM Tris-HCl buffer, pH 7.4, containing 100 mM sodium chloride, 0.1% PEG8000, 2.5 mM CaCl2, and 0.02% Tween80. The stock solutions of FXIIIa and rTG-2 were prepared in 50 mM Tris-HCl, 1 mM CaCl2, 100 mM sodium chloride, 0.02% Tween80, 0.1% PEG8000, and 2 mg/mL dimethylcasein. Papain and its chromogenic substrate (N-α-benzoyl-L-arginyl-4-nitroanilide) were obtained from Sigma Aldrich. Papain was prepared in 50 mM Tris-HCl buffer, pH 7.4, containing 100 mM NaCl, 100 mM DTT, 2.5 mM CaCl2, 0.1% PEG8000, and 0.02% Tween80. Human plasma for coagulation assays was obtained from George King Bio-Medica for the clotting assays. Thromboplastin-D (PT reagent), APTT reagent containing ellagic acid, and 0.025 M solution of CaCl2 were obtained from Thermo Fisher Scientific. Results were reproduced at least three times.
For tissue TG-2, a recombinant protein (rTG-2) was used in a bisubstrate, fluorescence-based trans-glutamination assay involving dansylcadaverine and N,N-dimethylcasein as substrates and under similar conditions used for human FXIIIa above. The activity of rTG-2 was monitored following the addition of 5 μL of dansylcadaverine (2 mM) by measuring the initial rate of increase in fluorescence emission (λEx. = 360 nm and λEm. = 490 nm). Relative residual rTG-2 activity at each concentration of inhibitor 16 was calculated from the ratio of rTG-2 activity in the presence and absence of the inhibitor. Logistic eq 1 was used to fit the concentration dependence of residual rTG-2 activity to obtain the IC50 and ΔY% of inhibition.

SMILES strings stand for the structures.

What is called IC50 is the concentration that gives 50% inhibition. Turning to `Nc1c(/N=N/c2ccc(S(=O)(=O)CCOS(=O)(=O)O)cc2)c(S(=O)(=O)O)cc2cc(S(=O)(=O)O)c(/N=N/c3ccc(S(=O)(=O)CCOS(=O)(=O)O)cc3)c(O)c12` [compound 16], the “selectivity for FXIIIa over rTG-2” value came to 9 fold. Also, for the setting “recombinant TG-2”, the IC50 amounted to 18.1 ± 3.1 µM, the “rTG-2 HS (Hill slope)” value was determined as 2.2 ± 0.9 and the “rTG-2 ΔY” value came to 86 ± 7%.
